# Activity calls are given as the source filed them.
# Experiments:
# Cytochrome P450 2D6 = Cytochrome P450 2D6 (Homo sapiens, UniProt P10635); test: qHTS Assay for Inhibitors and Substrates of Cytochrome P450 2D6. [Related pubchem assays: 410 ]; format: ADME; conditions: read-out: Potency
# Cytochrome P450 2C19 = Cytochrome P450 2C19 (Homo sapiens, UniProt P33261); test: qHTS Assay for Inhibitors and Substrates of Cytochrome P450 2C19. [Related pubchem assays: 410 ]; format: ADME; conditions: read-out: Potency
# Cytochrome P450 2C19, sequence (P33261 whole entry): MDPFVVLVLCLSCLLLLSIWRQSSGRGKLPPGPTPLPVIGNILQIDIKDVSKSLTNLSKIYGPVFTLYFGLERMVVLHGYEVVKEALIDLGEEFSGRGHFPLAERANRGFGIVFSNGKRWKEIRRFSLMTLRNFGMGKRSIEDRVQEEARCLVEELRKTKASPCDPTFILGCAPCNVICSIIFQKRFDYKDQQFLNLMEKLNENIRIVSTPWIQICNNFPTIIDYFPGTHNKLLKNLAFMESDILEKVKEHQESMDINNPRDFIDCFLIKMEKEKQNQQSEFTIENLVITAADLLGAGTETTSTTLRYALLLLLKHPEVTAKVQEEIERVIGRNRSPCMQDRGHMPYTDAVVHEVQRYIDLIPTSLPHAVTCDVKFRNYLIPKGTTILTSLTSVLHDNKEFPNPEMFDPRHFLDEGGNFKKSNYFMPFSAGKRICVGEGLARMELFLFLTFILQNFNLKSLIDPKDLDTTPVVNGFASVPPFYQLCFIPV
# [1] = Luminescence Cell-Based Dose Confirmation HTS to Identify Inhibitors of Polyadenylation.; format: functional
# [2] = molecular target: Peroxisome proliferator-activated receptor gamma/Nuclear receptor corepressor 2 (Homo sapiens, UniProt P37231+Q9Y618); test: Counterscreen for NR2E3 inverse agonists: TR-FRET-based biochemical high throughput dose response assay to identify inverse agonists of the interaction between peroxisome proliferator-activated receptor gamma (PPARg) and nuclear receptor co-repressor 2 (NCOR2).; format: functional
# Peroxisome proliferator-activated receptor gamma/Nuclear receptor corepressor 2, sequence (P37231 whole entry): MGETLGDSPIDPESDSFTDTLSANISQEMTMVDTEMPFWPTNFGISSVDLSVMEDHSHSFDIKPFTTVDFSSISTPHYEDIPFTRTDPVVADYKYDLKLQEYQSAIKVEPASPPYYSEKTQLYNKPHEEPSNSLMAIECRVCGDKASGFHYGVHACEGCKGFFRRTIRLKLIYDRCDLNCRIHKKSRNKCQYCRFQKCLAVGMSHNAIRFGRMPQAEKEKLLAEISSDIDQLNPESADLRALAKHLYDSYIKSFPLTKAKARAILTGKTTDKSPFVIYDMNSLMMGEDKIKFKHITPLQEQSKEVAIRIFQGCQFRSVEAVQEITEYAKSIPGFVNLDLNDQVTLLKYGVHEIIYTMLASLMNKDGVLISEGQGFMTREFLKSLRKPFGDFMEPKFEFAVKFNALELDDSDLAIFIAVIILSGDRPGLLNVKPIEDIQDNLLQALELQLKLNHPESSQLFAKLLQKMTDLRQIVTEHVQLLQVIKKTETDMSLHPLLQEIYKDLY
# Peroxisome proliferator-activated receptor gamma/Nuclear receptor corepressor 2, sequence (Q9Y618 whole entry): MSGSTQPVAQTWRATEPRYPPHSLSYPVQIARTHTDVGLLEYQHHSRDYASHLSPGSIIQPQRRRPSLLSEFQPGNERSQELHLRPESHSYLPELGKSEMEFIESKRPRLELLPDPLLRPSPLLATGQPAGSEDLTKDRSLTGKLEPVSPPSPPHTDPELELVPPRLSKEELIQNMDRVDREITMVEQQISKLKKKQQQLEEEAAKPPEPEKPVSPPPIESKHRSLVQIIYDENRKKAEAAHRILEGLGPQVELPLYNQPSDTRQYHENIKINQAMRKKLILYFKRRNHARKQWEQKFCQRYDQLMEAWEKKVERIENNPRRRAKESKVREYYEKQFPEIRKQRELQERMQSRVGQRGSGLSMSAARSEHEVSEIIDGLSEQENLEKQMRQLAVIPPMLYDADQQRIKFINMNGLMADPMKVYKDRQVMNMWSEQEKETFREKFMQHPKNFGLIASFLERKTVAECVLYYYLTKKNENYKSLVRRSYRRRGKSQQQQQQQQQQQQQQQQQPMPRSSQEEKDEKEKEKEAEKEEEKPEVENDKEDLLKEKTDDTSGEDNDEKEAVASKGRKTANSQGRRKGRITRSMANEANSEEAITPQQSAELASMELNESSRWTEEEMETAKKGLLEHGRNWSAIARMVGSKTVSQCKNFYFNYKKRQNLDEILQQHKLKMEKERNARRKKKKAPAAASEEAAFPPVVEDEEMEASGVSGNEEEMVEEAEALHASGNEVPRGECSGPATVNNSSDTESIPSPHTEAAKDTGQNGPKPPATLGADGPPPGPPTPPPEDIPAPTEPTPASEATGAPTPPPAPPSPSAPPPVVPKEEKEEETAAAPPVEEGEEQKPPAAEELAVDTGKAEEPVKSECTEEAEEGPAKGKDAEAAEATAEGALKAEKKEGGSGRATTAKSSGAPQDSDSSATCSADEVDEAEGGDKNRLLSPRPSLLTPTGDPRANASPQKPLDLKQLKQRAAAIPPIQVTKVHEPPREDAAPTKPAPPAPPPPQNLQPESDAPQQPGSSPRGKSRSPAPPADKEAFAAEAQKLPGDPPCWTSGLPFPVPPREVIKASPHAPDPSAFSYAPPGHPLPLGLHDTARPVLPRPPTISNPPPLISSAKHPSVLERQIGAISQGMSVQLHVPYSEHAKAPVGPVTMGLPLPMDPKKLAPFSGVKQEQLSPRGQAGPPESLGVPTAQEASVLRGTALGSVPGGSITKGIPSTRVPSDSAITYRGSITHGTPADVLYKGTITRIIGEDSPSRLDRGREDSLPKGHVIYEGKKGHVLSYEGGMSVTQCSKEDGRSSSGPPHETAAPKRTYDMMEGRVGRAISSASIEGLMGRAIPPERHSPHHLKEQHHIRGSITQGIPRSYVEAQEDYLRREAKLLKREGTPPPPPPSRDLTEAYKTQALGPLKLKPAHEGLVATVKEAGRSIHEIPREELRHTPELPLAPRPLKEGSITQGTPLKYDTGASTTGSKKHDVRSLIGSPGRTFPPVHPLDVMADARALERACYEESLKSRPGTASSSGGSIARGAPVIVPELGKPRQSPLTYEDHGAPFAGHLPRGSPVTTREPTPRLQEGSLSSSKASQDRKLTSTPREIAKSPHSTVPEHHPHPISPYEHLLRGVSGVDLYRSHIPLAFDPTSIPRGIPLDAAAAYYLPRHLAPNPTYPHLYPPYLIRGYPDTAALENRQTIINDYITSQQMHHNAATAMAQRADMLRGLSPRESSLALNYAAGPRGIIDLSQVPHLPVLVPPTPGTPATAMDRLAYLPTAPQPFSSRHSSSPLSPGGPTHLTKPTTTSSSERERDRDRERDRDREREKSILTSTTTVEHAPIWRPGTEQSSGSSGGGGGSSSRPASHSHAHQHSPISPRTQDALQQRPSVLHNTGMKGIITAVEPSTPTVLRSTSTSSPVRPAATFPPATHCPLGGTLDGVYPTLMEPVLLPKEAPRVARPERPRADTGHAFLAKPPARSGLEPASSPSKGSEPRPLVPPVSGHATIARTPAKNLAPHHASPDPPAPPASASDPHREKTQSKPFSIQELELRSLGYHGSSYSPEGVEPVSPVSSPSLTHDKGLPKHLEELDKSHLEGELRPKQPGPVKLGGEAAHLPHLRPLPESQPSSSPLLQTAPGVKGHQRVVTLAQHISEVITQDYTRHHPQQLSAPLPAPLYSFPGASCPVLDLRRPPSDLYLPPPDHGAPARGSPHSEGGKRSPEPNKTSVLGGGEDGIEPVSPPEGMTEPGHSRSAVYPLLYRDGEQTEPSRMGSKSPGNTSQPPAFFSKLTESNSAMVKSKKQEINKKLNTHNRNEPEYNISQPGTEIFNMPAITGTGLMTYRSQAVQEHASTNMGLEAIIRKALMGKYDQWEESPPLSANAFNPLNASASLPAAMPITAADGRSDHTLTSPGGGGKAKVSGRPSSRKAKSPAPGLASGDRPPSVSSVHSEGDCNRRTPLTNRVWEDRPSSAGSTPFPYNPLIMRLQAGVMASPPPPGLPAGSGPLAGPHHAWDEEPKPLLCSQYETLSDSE
# [3] = molecular target: Photoreceptor-specific nuclear receptor (Homo sapiens, UniProt Q9Y5X4); test: NR2E3 inverse agonists, dose response, biochemical, TR-FRET (AID 463256); format: functional
# Photoreceptor-specific nuclear receptor, sequence (Q9Y5X4 whole entry): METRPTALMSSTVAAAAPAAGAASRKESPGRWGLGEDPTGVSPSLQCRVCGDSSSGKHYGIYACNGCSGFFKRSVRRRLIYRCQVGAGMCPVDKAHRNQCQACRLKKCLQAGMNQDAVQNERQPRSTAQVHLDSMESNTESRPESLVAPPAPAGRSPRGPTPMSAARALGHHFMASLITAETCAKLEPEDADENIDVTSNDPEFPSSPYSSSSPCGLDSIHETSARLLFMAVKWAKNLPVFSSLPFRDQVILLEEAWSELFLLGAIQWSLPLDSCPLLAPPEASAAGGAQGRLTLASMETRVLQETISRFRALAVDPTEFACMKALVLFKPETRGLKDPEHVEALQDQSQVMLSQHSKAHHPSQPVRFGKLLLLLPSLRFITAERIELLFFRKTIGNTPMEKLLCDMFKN
# HEK293 [4] = test: NOD2 signaling inhibitors in MDP-stimulated cells, cell-based, uHTS, luminescence (AID 2001); format: functional; conditions: Homo sapiens
# BJ [5] = test: cells; format: functional, cell-based; conditions: Homo sapiens, read-out: EC50
# BJ [6] = test: cytotoxicity toward BJ-TERT fibroblasts, dose response, cell-based, RAS-independent, luminescence (AID 1933); format: functional; conditions: Homo sapiens
# Vero = test: cells; format: functional; conditions: Chlorocebus sabaeus
# [7] = cytotoxicity toward DRD oncogenic fibroblasts, dose response, cell-based, non-viral oncogenic, luminescence (AID 1934); format: functional; conditions: Homo sapiens
# [8] = Luminescent dose response cell-based high throughput screening assay for inhibitors of the Janus kinase 2 mutant JAK2V617F. [Related pubchem assays: 1446 (Primary screen.), 1521 (Confirmation assay.), 1486 (Counter screen.)]; format: functional
# BJ [9] = test: cytotoxicity toward Ras-transformed BJeLR fibroblasts, dose response, cell-based, alamar blue fluorescence, cherrypicked samples (AID 2631); format: functional; conditions: Homo sapiens;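 further: confirmatory dose-response assay in RAS-dependent BJ fibroblasts engineered with TERT, LT and ST, with cytotoxicity read by fluorescence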
# HEK293 [10] = test: cells; conditions: Homo sapiens
# HEK293 [11] = test: NOD1 signaling inhibitors, primary screen, cell-based, luminescence, uHTS (AID 1578); format: functional; conditions: Homo sapiens
# HEK293 [12] = test: cells; format: functional, cell-based; conditions: Homo sapiens
# BJ [13] = test: cytotoxicity toward BJ-TERT-LT-ST fibroblasts, dose response, cell-based, RAS-independent, luminescence (AID 1935); format: functional; conditions: Homo sapiens;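 further: BJ fibroblasts immortalized with TERT plus LT and ST oncogenes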
# HEK293 [14] = test: cells; format: functional, cell-based; conditions: Homo sapiens; remark: listed apart in the source
# [15] = molecular target: T1, Nucleotide-binding oligomerization domain-containing protein 1 (Homo sapiens, UniProt Q9Y239); test: NOD1 signaling inhibitors, SAR follow-up, revised (AID 2333); format: functional
# T1 sequence (Q9Y239 whole entry): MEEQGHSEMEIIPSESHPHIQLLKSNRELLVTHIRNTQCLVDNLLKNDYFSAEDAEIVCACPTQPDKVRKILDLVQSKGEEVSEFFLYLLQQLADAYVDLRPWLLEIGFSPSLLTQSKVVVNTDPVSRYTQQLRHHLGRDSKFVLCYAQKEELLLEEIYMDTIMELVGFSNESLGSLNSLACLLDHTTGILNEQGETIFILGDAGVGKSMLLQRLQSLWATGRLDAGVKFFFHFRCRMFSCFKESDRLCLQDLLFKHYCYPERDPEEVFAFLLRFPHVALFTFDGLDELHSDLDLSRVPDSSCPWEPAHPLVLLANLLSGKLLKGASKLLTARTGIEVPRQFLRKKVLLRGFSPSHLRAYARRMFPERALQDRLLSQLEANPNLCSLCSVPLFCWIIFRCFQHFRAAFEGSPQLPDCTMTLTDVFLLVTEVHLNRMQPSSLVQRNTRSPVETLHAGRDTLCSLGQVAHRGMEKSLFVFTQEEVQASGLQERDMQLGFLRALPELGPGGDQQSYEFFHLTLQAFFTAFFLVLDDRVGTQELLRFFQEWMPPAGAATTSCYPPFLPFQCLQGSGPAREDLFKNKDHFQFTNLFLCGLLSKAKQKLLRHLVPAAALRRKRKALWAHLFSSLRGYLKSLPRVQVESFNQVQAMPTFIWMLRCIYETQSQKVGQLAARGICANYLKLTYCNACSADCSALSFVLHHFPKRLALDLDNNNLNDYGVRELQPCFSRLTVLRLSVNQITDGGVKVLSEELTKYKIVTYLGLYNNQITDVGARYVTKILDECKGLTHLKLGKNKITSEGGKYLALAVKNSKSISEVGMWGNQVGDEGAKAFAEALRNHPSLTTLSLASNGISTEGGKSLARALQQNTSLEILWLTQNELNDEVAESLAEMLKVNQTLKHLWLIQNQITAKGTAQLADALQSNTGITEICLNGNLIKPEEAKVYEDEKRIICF
# Tumor necrosis factor = Tumor necrosis factor (Homo sapiens, UniProt P01375); test: TNFa-triggered NF-kB activation inhibitors, SAR follow-up, cell-based, revised (AID 2337); format: functional
# [16] = molecular target: Glyceraldehyde-3-phosphate dehydrogenase (Homo sapiens, UniProt P04406)
# Glyceraldehyde-3-phosphate dehydrogenase, sequence (P04406 whole entry): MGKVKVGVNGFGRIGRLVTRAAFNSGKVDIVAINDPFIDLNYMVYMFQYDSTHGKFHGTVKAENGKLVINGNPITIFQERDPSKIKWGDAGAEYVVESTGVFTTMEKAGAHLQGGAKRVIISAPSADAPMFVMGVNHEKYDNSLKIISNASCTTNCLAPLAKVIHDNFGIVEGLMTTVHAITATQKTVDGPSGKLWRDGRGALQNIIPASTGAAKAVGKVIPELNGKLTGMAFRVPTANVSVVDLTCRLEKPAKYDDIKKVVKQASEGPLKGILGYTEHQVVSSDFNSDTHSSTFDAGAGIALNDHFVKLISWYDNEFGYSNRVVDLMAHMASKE
# Bcl-2-related protein A1 [17] = molecular target: T2, Bcl-2-related protein A1 (Mus musculus, UniProt Q07440); test: Bfl-1 binding inhibitors, SAR follow-up, biochemical, fluorescence polarization (AID 1070)
# T2 sequence (Q07440 whole entry): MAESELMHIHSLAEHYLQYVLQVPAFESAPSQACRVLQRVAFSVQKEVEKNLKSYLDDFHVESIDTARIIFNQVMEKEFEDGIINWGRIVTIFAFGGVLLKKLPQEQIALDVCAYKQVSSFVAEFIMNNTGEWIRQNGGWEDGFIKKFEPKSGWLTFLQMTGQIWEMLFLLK
# Bcl-2-related protein A1 [18] = molecular target: T2, Bcl-2-related protein A1; test: Bfl-1 inhibitors blocking BH3 peptide binding, confirmation, biochemical, TR-FRET, mouse Bfl-1 (AID 621);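 further: TR-FRET binding of GST-Bfl-1 to FITC-labelled Bid peptide via terbium antibody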
# Cytochrome P450 2D6, sequence (P10635 whole entry): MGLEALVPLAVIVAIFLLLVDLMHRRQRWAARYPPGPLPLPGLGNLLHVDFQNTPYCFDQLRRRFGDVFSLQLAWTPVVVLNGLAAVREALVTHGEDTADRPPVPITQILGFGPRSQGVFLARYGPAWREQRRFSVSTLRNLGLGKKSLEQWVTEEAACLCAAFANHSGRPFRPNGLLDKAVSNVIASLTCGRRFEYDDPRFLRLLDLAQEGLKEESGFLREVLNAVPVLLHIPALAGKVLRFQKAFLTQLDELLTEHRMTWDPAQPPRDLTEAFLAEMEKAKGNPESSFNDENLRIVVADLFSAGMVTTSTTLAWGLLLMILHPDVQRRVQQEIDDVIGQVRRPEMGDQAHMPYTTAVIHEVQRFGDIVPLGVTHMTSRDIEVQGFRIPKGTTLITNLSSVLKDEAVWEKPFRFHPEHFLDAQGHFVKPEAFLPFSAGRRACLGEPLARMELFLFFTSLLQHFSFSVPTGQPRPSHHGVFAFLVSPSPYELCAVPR
structure (smiles),measurement,setting,value
COC(=O)NC(/C(C(=O)OC)=C(\C)NCc1ccccc1)c1cccc(F)c1 (configuration not stated),AC50,Cytochrome P450 2D6,5.01 µM (inconclusive)
same,AC50,Cytochrome P450 2C19,7.94 µM (inconclusive)
COc1ccccc1N1CCN(C(=O)CCNS(=O)(=O)c2ccc(Br)s2)CC1,EC50,[1],> 120 µM (not active)
Cc1ccc2oc(=O)cc(CN3CCCCC3)c2c1,IC50,[2],> 39.8 µM (not active)
same,IC50,[3],7.54 µM (active)
Cc1cccc(Nc2nc(N)nc(CCl)n2)c1C,IC50,HEK293 [4],9.47 µM (active)
same,EC50,BJ [5],2.02 µM (active)
same,EC50,BJ [6],2.19 µM (inconclusive)
same,CC50,Vero,2.11 µM (active)
same,EC50,[7],0.65 µM (active)
same,IC50,[8],0.628 µM (active)
same,EC50,BJ [9],6.44 µM (active)
same,IC50,HEK293 [10],> 20 µM (inactive)
same,EC50,HEK293 [11],10.8 µM (active)
same,IC50,HEK293 [12],9.12 µM (active)
same,EC50,BJ [13],> 75 µM (inconclusive)
same,IC50,HEK293 [14],> 20 µM (inactive)
same,IC50,[15],4.04 µM (active)
same,IC50,Tumor necrosis factor,9.45 µM (active)
COc1cccc(-c2cc(C(F)(F)F)nc(S(C)(=O)=O)n2)c1,IC50,[16],> 100 µM (not active)
same,IC50,Bcl-2-related protein A1 [17],6.78 µM (active)
same,IC50,Bcl-2-related protein A1 [18],2.24 µM (active)

# Reference: ChEMBL document CHEMBL1201862, “PubChem BioAssay data set” (2004)
